Reference: US9255088B2, “Premature-termination-codons readthrough compounds” (The Regents of the University of California, priority 2010, dated 2016)

Key:
[1] = system: ATMs1981 autophosphorylation in AT153LA cells (TGA); assay: Flow cytometry ATMs1981 autophosphorylation (FC-ATM) in AT153LA cells; format: cell-based, human; set-up: FC-ATM (Delta-FI, 30 μM): unit not given here; conditions: for FCATMs1981: summary of positive results; for FCATMs1981: key: the positive results on various assays are also summarized and labeled as '+'
Experimental: FC-SMC1 assay was performed as recently described (Nahas et al., 2009). FC-ATM-Ser1981 assay was based on Honda's assay (Honda et al., 2009, Leukemia. 23:409-414) with modifications. In brief, cells were resuspended in PBS and radiated for 10 Gy. After 1 h, the cells were fixed and permeabilized using the FIX & PERM cell permeabilization kit (Invitrogen). The cells were then incubated with 1 μl of mouse ATM-Ser1981 antibody (Cell Signaling Technology) for 2 h at room temperature. Cells were washed and resuspended in 100 μl PBS with Alexa Fluor 488 anti-mouse IgG (Invitrogen) for 45 min. Cells were next washed and resuspended in PBS with 0.2% paraformaldehyde and analyzed using a FACSCalibur (BD).
Studies on readthrough activity of RTC#13 derivatives as measured by FC-ATMS 1981 were performed according to the procedures provided in Example 1.
These two series, 7 and 9, were tested for readthrough activity using an assay in which the ATM protein kinase activity was measured using a flow cytometry-based ATMs1981 autophosphorylation assay (FC-ATM) (Nahas, S. A; et al., Clin. Chem. 2009, 55, 463-72). […] An increased Delta-FI indicates the restoration of ATM kinase activity by a compound.
(§1) These two series, 13 and 15, were again tested for readthrough activity using the assay in which the ATM protein kinase activity was measured by functional flow cytometry (FC-ATM) (Table 4 and FIG. 12). A second assay, irradiation (1R)-induced ATMs1981 nuclear foci formation (IRIF-ATM), was also used to confirm the readthrough activity of these compounds (Table 4 and FIG. 13). Table 3 summarizes the data for the analogues 13 and 15 (at 30 μM), in which the groups R, R′, and X were varied. More detailed data are reported in FIG. 5 (for FC-ATM assay), and in FIG. 6 (for IRIF-ATM assay). […] Thus, the pyrimidinedione unit serves as a good structural replacement for the 2-imino and 2-thioxo thiazolidin-4-one units.

[2] = system: ATM-Ser1981 foci in AT153LA cells (TGA A); assay: Irradiation-induced ATM-Ser1981 foci (IRIF) in AT153LA cells; for IRIF (ATMs1981): key: the positive results on various assays are also summarized and labeled as '+'; format: cell-based, human; conditions: for IR-induced ATMs1981 foci formation, readthrough activity: A-T153LA cells (TGA), FIG. 13; for IRIF-ATM (%) (30 μM): Table 4, IR-induced ATMs1981 nuclear foci formation; for IRIF (ATMs1981): summary of positive results
Experimental: To evaluate the function of RTC-induced ATM protein, we measured irradiation-induced foci (IRIF) formation of ATM-Ser1981 in the same ATI53LA cells (TGA A). […] The maximum IRIF induction achieved in A-T cells by 10 μM RTC#13 was ˜40% of wild-type level. As a positive readthrough control, 144 μM of G418 (100 μg/ml) was used to treat cells. Our previous studies had shown that, at this concentration, […] induced a maximum level of ATMs1981 IRIF (Lai et al., 2004).
Immunostaining of nuclear foci of ATM-Ser1981 was performed as previously reported (Du et al., 2007). In brief, after being treated with compound for 4 d, cells were irradiated with 2 Gy and incubated at 37° C. for 30 min. The cells were dropped onto coverslips, fixed with 4% paraformaldehyde, and permeabilized. Coverslips were blocked for 1 h and incubated with mouse anti-ATM pSer1981 for 1 h (1:500; Rockland Immunochemicals, Inc). After a second blocking, cells were stained with FITC-conjugated anti-mouse IgG (1:150; Jackson ImmunoResearch Laboratories) for 1 h and mounted onto slides.
Studies on IR-induced ATMs1981 foci formation by RTC#13 and derivatives 13a, 13b, 13d, 13e, 13f, 13g, 13h, 13i, 13j, and 13k in A-T153LA cells (TGA) were performed according to the procedures provided in Example 1.
as §1

[3] = Table 2, compounds 7, 30 µM, change in fluorescence intensity before and after ionizing radiation
[4] = Table 4, compounds 13 and 15, 30 μM

| SMILES | FC-ATM (Delta-FI, 30 μM) [1, 3] | FCATMs1981 [1] | FC-ATM (Delta-FI, 30 μM) ([1]; Table 3, compounds 9, 30 μM) | also measured |
| --- | --- | --- | --- | --- |
| CN1C(=N)S/C(=C\c2ccc(-c3ccccc3[N+](=O)[O-])o2)C1=O [Compound 7c, (Z)-2-imino-3-methyl-5-((5-(2-nitrophenyl)furan-2-yl)methylene)thiazolidin-4-one] | negative |  |  |  |
| N=C1NC(=O)/C(=C/c2ccc(-c3ccccc3F)o2)S1 [Compound 7g, (Z)-5-((5-(2-fluorophenyl)furan-2-yl)methylene)-2-iminothiazolidin-4-one] | negative |  |  |  |
| COc1cccc(-c2ccc(/C=C3\SC(=N)NC3=O)o2)c1 [Compound 7h, (Z)-2-imino-5-((5-(3-methoxyphenyl)furan-2-yl)methylene)thiazolidin-4-one] | 1.90 | + |  |  |
| N=C1NC(=O)/C(=C/c2ccc(-c3cccc(Cl)c3)o2)S1 [Compound 7i, (Z)-5-((5-(3-chlorophenyl)furan-2-yl)methylene)-2-iminothiazolidin-4-one] | 2.27 | + |  |  |
| O=C1NC(=S)S/C1=C\c1ccc(-c2ccccc2C(F)(F)F)o1 [Compound 7k, (Z)-2-thioxo-5-((5-(2-(trifluoromethyl)phenyl)furan-2-yl)methylene)thiazolidin-4-one] | negative |  |  |  |
| COc1ccccc1-c1ccc(/C=C2\SC(=S)NC2=O)o1 [Compound 7l, (Z)-5-((5-(2-methoxyphenyl)furan-2-yl)methylene)-2-thioxothiazolidin-4-one] | negative |  |  |  |
| COc1cccc(-c2ccc(/C=C3\SC(=S)NC3=O)o2)c1 [Compound 7o] | 2.66 | + |  |  |
| O=C1NC(=S)S/C1=C\c1ccc(-c2cccc(Cl)c2)o1 [Compound 7p, (Z)-5-((5-(3-chlorophenyl)furan-2-yl)methylene)-2-thioxothiazolidin-4-one] | 2.86 | + |  |  |
| N=C1NC(=O)/C(=C/c2cc3ccccc3o2)S1 [Compound 9a, (Z)-5-(benzofuran-2-ylmethylene)-2-iminothiazolidin-4-one] |  |  | negative |  |
| N=C1NC(=O)/C(=C/c2cc3ccccc3[nH]2)S1 [Compound 9b, (Z)-5-((1H-indol-2-yl)methylene)-2-iminothiazolidin-4-one] |  |  | negative |  |
| N=C1NC(=O)/C(=C/c2c[nH]c3ccccc23)S1 [Compound 9c, (Z)-5-((1H-indol-3-yl)methylene)-2-iminothiazolidin-4-one] |  |  | negative |  |
| N=C1NC(=O)/C(=C/c2ccc(-c3ccccn3)o2)S1 [Compound 9d, (Z)-2-imino-5-((5-(pyridin-2-yl)furan-2-yl)methylene)thiazolidin-4-one] |  |  | negative |  |
| N=C1NC(=O)/C(=C/c2ccc(-c3ccccc3)s2)S1 [Compound 9e, (Z)-2-imino-5-((5-phenylthiophen-2-yl)methylene)thiazolidin-4-one] |  |  | negative |  |
| N=C1NC(=O)/C(=C/c2ccco2)S1 [Compound 9f, (Z)-5-(furan-2-ylmethylene)-2-iminothiazolidin-4-one] |  |  | negative |  |
| O=C1NC(=S)S/C1=C\c1cc2ccccc2o1 [Compound 9g, (Z)-5-(benzofuran-2-ylmethylene)-2-thioxothiazolidin-4-one] |  | + | 3.50 | FC-ATM readthrough activity [1]: positive results |
| O=C1NC(=S)S/C1=C\c1cc2ccccc2[nH]1 [Compound 9h, (Z)-5-((1H-indol-2-yl)methylene)-2-thioxothiazolidin-4-one] |  |  | negative |  |
| O=C1NC(=S)S/C1=C\c1c[nH]c2ccccc12 [Compound 9i, (Z)-5-((1H-indol-3-yl)methylene)-2-thioxothiazolidin-4-one] |  |  | negative |  |
| O=C1NC(=S)S/C1=C\c1ccc(-c2ccccn2)o1 [Compound 9j, (Z)-5-((5-(pyridin-2-yl)furan-2-yl)methylene)-2-thioxothiazolidin-4-one] |  |  | negative |  |
| O=c1[nH]c(=O)n(Cc2ccc(-c3ccccc3[N+](=O)[O-])o2)cc1F [Compound 13b, 5-fluoro-1-((5-(2-nitrophenyl)furan-2-yl)methyl)pyrimidine-2,4(1H,3H)-dione] |  | + |  | IR-induced ATMs1981 foci formation, readthrough activity [2]: statistically significant readthrough activity; IRIF-ATM (%) (30 μM) [2]: 14.5%; FC-ATM (Delta-FI, 30 μM) [1, 4]: 2.08 |
| Cc1cn(Cc2ccc(-c3ccccc3[N+](=O)[O-])o2)c(=O)[nH]c1=O [Compound 13c] |  |  |  | IRIF-ATM (%) (30 μM) [2]: negative; FC-ATM (Delta-FI, 30 μM) [1, 4]: negative |
| O=Cc1cn(Cc2ccc(-c3ccccc3[N+](=O)[O-])o2)c(=O)[nH]c1=O [Compound 13d, 1-((5-(2-nitrophenyl)furan-2-yl)methyl)-2,4-dioxo-1,2,3,4-tetrahydropyrimidine-5-carbaldehyde] |  | + |  | IR-induced ATMs1981 foci formation, readthrough activity [2]: statistically significant readthrough activity; IRIF-ATM (%) (30 μM) [2]: 16.0%; IRIF (ATMs1981) [2]: +; FC-ATM (Delta-FI, 30 μM) [1, 4]: 2.24 |
| O=c1ccn(Cc2ccc(-c3ccccc3)o2)c(=O)[nH]1 [Compound 13e, 1-((5-phenylfuran-2-yl)methyl)pyrimidine-2,4(1H,3H)-dione] |  | + |  | IR-induced ATMs1981 foci formation, readthrough activity [2]: statistically significant readthrough activity; IRIF-ATM (%) (30 μM) [2]: 9.4%; IRIF (ATMs1981) [2]: +; FC-ATM (Delta-FI, 30 μM) [1, 4]: 3.42 |
| Cc1cn(Cc2ccc(-c3ccccc3)o2)c(=O)[nH]c1=O [Compound 13f, 5-methyl-1-((5-phenylfuran-2-yl)methyl)pyrimidine-2,4(1H,3H)-dione] |  | + |  | IR-induced ATMs1981 foci formation, readthrough activity [2]: statistically significant readthrough activity; IRIF-ATM (%) (30 μM) [2]: 22.75%; IRIF (ATMs1981) [2]: +; FC-ATM (Delta-FI, 30 μM) [1, 4]: 3.80 |
| O=c1ccn(Cc2ccc(-c3ccccc3F)o2)c(=O)[nH]1 [Compound 13g, 1-((5-(2-fluorophenyl)furan-2-yl)methyl)pyrimidine-2,4(1H,3H)-dione] |  | + |  | IR-induced ATMs1981 foci formation, readthrough activity [2]: all RTC#13 derivatives show statistically significant readthrough activity except for Derivative 13g; IRIF-ATM (%) (30 μM) [2]: 20%; FC-ATM (Delta-FI, 30 μM) [1, 4]: 5.43 |
| Cc1cn(Cc2ccc(-c3ccccc3F)o2)c(=O)[nH]c1=O [Compound 13h, 1-((5-(2-fluorophenyl)furan-2-yl)methyl)-5-methylpyrimidine-2,4(1H,3H)-dione] |  | + |  | IR-induced ATMs1981 foci formation, readthrough activity [2]: statistically significant readthrough activity; IRIF-ATM (%) (30 μM) [2]: 9.6%; IRIF (ATMs1981) [2]: +; FC-ATM (Delta-FI, 30 μM) [1, 4]: 6.16 |
